Reference: US20200129582A1, “NOVEL PEPTIDES AND PEPTIDOMIMETICS” (UNIVERSITY OF AUCKLAND, priority 2016, published 2020)
“And” between values parts separate entries of the source, which are not always exact repeats. Equal entries are not always repeated. Where two headings read alike, the source gives them in different places.

Key:
[1] = molecular target: T1, hemichannel-mediated ATP release from hCMVEC cells (Homo sapiens, UniProt P17302); assay: In vitro ischemia injury ATP release assay (single alanine substituted and truncated peptides); type: cell-based
T1 construct: endogenous in cells; host or cells: hCMVEC (human cerebral microvascular endothelial cells)
T1 sequence (P17302 2-382 limits assumed): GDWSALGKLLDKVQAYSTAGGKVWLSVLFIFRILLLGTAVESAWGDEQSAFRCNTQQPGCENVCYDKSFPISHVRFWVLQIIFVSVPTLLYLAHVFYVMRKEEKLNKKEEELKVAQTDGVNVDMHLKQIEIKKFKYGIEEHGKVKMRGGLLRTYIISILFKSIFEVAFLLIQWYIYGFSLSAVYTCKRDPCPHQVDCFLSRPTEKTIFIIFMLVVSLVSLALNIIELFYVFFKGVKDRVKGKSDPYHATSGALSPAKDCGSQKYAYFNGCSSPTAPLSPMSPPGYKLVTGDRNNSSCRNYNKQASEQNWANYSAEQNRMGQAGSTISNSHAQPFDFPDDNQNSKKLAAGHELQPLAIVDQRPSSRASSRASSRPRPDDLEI
Method: The human cerebral endothelial cells (hCMVEC) were plated at a density of 0.025×10^6 cells per well in a collagen-coated 12-well plate (1 μg/cm^2) a day prior to the experiment. Cells were incubated in culture medium overnight. Hypoxic, acidic, ion-shifted Ringer injury solution that mimics ionic concentrations and acid-base shifts of the interstitial space in hypoxic-ischemic brains (Bondarenko and Chesler, 2001, […]) was used to trigger hemichannel opening. The injury solution contained (in mM): 38 NaCl, 13 NaHCO3, 3 Na-gluconate, 65 K-gluconate, 38 NMDG-Cl, 1 NaH2PO4, and 1.5 MgCl2. The injury solution was bubbled in 95% N2, 5% CO2 gas (20 L/min) for 5 minutes and pH adjusted to 6.6 before use. The standard ringer solution contained (in mM): 124 NaCl, 3 KCl, 26 NaHCO3, 26 NaHCO3, 1 NaH2PO4, 1.3 CaCl2, 1.5 MgCl2, and 10 Glucose, and pH adjusted to 7.4 before use (Bondarenko and Chesler, 2001). In the ischemia injury model, hCMVEC cells were incubated for 2 hours in 500 μL injury solution+/−Peptide5 (100 μM) (O'Carroll et al., 2008, Cell communication & adhesion 15:27-42; Danesh-Meyer et al., 2012, Brain: a journal of neurology 135:506-520; Davidson et al., 2012, Annals of neurology 71:121-132; Davidson et al., 2013, Experimental neurology 248:301-308; Davidson et al., 2014, PloS one 9:e96558; Davidson et al., 2015, J Cereb Blood Flow Metab), or +/−extracellular loop sequences (Table 5), or modified peptides (Table 2, 3) dissolved in injury solution (500 μL) with a final concentration of 100 μM. For negative control, hCMVEC cells were incubated only in 500 μL standard ringer solution for 2 hours. For positive control, hCMVEC cells were incubated only in 500 μL […] for 2 hours. All incubations were conducted at 37° C. in 95% O2 and 5% CO2. At the end of each experiment, samples were removed and immediately placed on ice. The concentration of ATP in the samples was determined using a Luciferin/luciferase bioluminescence reaction (ATP Determination Kit, Molecular Probes) and detected using a luminescence plate reader (VICTOR X, Perkin Elmer #2030-0010). Standard curves were generated in each experiment from an ATP standard (0 to 500 nM) to convert bioluminescence units to ATP concentration. […] The data is presented as mean±standard error relative to the injury or injury-reperfusion positive control. Statistically significant differences between samples were tested using one-way analysis of variance and Tukey's multiple comparisons test.
Peptides listed in table 5 and 2 were assessed using the ischemia injury model in hCMVEC cells as described above, and the medium was collected for ATP release measurement.
The human cerebral endothelial cells (hCMVEC) were plated at a density of 0.025×10^6 cells per well in a collagen-coated 12-well plate (1 μg/cm^2) a day prior to the experiment. Cells were incubated in culture medium overnight. Hypoxic, acidic, ion-shifted Ringer injury solution that mimics ionic concentrations and acid-base shifts of the interstitial space in hypoxic-ischemic brains (Bondarenko and Chesler, 2001) was used to trigger hemichannel opening. The injury solution contained (in mM): 38 NaCl, 13 NaHCO3, 3 Na-gluconate, 65 K-gluconate, 38 NMDG-Cl, 1 NaH2PO4, and 1.5 MgCl2. The injury solution was bubbled in 95% N2, 5% CO2 gas (20 L/min) for 5 minutes and pH adjusted to 6.6 before use. The standard ringer solution contained (in mM): 124 NaCl, 3 KCl, 26 NaHCO3, 26 NaHCO3, 1 NaH2PO4, 1.3 CaCl2, 1.5 MgCl2, and 10 Glucose, and pH adjusted to 7.4 before use (Bondarenko and Chesler, 2001).

[2] = molecular target: T2, Connexin43 protein (hemichannels of hCMVEC cells) (Homo sapiens, UniProt P17302); type: cell-based; conditions: agent alone, 100 μM, FIG. 6, injury control 100±3.5%
T2 construct: In the ischemia injury model, hCMVEC cells were incubated for 2 hours; endogenous in cells; host or cells: hCMVEC (human cerebral microvascular endothelial cells)
T2 sequence (P17302 2-382): as the sequence (P17302 2-382 limits assumed) above

[3] = molecular target: T2, Connexin43 protein (hemichannels of hCMVEC cells); type: cell-based
Method: (§1) Peptide5 interacting site on the Connexin43 protein was determined using a competition assay. Extracellular loop sequences (Auspep, Australia) were dissolved in miliQ H2O were at a stock concentration of 1 mM […]. Extracellular loop sequences were mixed with the native Peptide5 at 1:1 ratio (100 μM), which was left for 1 hour at room temperature prior to the experiment to allow competitive binding to occur. Following 1-hour incubation, extracellular loop sequence and peptide5 mixture was dissolved in injury solution and exposed to hCMVEC cells for 2 hours using the ischaemia-reperfusion model described above. Extracellular medium was then collected for ATP measurement.
as §1, with “interaction sites” for “interacting site”

[4] = system: hemichannels and gap junction channels; conditions: O'Carroll et al., 2008; cited from earlier work

CC1(C)[C@@H](OC(=O)CCC(=O)O)CC[C@]2(C)[C@H]3C(=O)C=C4[C@@H]5C[C@@](C)(C(=O)O)CC[C@]5(C)CC[C@@]4(C)[C@]3(C)CC[C@@H]12 [CBX, Carbenoxolone]
ATP release compared to injury control (in words) ([1]; hCMVEC, 100 μM, FIG. 3): significantly reduced ATP release
ATP release, % of the injury control ([1]; hCMVEC, ischemic injury solution 2 hours, 100 μM, FIG. 3, injury control 100±3.6%): 9.1±10.1%
ATP release, % of the injury control [2]: 13.4±4.8%

VDCFLSRPTEKT [Peptide5]
ATP release, % of the injury control [3]: 54.1±4.4%
ATP release compared to injury control (in words) [1]: significantly reduced ATP release
ATP release, % of the injury control [1]: 44.6±7.7% and 47.3±5.1%
high concentration that inhibits both hemichannel and gap junction channel function [4]: 500 µM
low concentrations that specifically inhibit hemichannels [4]: 5 to 50 µM
